# Reference: patent publication US11136345B2, “Large scale preparation of pseudo-trisaccharide aminoglycosides and of intermediates thereof” (Eloxx Pharmaceuticals Ltd., priority 2017, dated 2021)
# System: Rett Syndrome mutation R270X
# Test: Read-through activity in cell-free assay (firefly/renilla luciferase reporter, in vitro transcription/translation)
# Assay type: biochemical, rabbit
# Conditions: cell-free dose-response, concentration range 0-12 μM; firefly/renilla expression ratio normalized to WT and non-treated control (FIGS. 6A-B)
# Procedure: The plasmids were transcribed in vitro and translated using rabbit reticulocytes (TNT mix) and then tested for the expression levels of the firefly and renilla luciferases. WT plasmids expressed both firefly and renilla luciferases while mutant plasmids expressed only the renilla luciferase due to the stop codon found in the inserted sequence. The read-through assays were conducted for the tested compounds and the controls by adding the compounds to the in vitro transcription/translation reaction mixture. In case the compounds exerted suppression of the premature nonsense/stop codon mutation, the firefly luciferase was expressed and a fold-change in its expression was observed.
# Read-through activity of Rett Syndrome mutation R270X was tested using ELX-02 that was manufactured in Example 1 and 2, and the mutation suppression was calculated based on firefly/renilla expression ratio values, and normalized with respect to the expression level of the WT and the control sample (no tested compound).
# FIGS. 6A-B present the results of Rett Syndrome mutation R270X nonsense mutation suppression dose-response cell-free assays conducted for ELX-02 according to embodiments of the present invention, at a concentration rage of 0-12 μM.
smiles,measurement,value
C[C@H](N)[C@H]1O[C@@H](OC2C(O)[C@H](N)CC(N)[C@H]2O[C@H]2OC([C@@H](C)O)[C@@H](O)C(O)C2N)C(O)C1O (stereo partly shown) [ELX-02],"read-through of the Rett Syndrome mutation, R270X",dose-dependent increase
